Experimental data: patent US12606533B2, “3-phenylpropylamine derivative” (DAIICHI SANKYO COMPANY, LIMITED, priority 2023, dated 2026)
Structures can show the parent of a compound that is named as a salt.

Legend:
CYP21A2 = assay: Changes in SF1 target gene expression for NCI-H295R: CYP21A2 mRNA (qPCR); format: cell-based; settings: Homo sapiens, NCI-H295R cells, 24 hr
Procedure: (§1) NCI-H295R cells were cultured in a 5% CO2 incubator at 37° C. using DMEM/F12 medium (Thermo Fisher Scientific Inc.) containing 2.5% Nu-Serum (registered trademark) Growth Medium Supplement (Corning) and 1% Corning ITS+ Premix Universal Culture Supplement (Corning). The DMSO solution of each compound was serially diluted with DMSO using a D300e Digital Dispenser (TECAN), and the compounds were added to a 96-well plate (FALCON). NCI-H295R cells were seeded at 1×10^4 cells/50 μL/well on the 96-well plate containing the compounds added thereto, and cultured for 24 hr in a 5% CO2 incubator at 37° C. The final DMSO concentration in the medium was adjusted to 0.1% (v/v) in all cases, and the concentration range of the compounds was set to 1000 nM to 0.32 nM with a common ratio […]. After the completion of culture, the medium was discarded, 50 μL/well of chilled D-PBS (Sigma Aldrich) was added to wash the cells, and D-PBS was discarded. After washing, 25 μL/well of Cells-to-CT (registered trademark) Bulk Lysis Reagents (Thermo Fisher Scientific, Inc.) was added to the wells, the mixture was stirred for 5 min with a plate mixer, and 2.5 μL/well of the reaction quenching liquid was added to prepare cell lysate. The cell lysate was dispensed into a 96-well plate (Corning) at 10 μL/well, and 40 μL/well of Cells-to-CT Bulk RT Reagents (Thermo Fisher Scientific, Inc.) was added. A reverse transcription reaction was performed at 37° C. for 50 min using a thermal cycler, and the reverse transcriptase was inactivated by heating at 95° C. for 5 min, and then stored at 10° C. PrimeTime (registered trademark) Gene Expression Master Mix (Integrated DNA Technologies), the target genes CYP11A1, CYP17A1, CYP21A2, or STAR, and the control gene ACTB PrimeTime (registered trademark) qPCR Probe Assays (Integrated DNA Technologies), and Nuclease free water were mixed at a ratio of 20:1:1:10 to prepare a PrimerProbe mix. The prepared PrimerProbe mix was added to a 384-well plate at 8 μL/well, and the cDNA obtained by reverse transcription was added at 2 μL/well. Real-Time PCR was performed under fast cycling conditions (95° C. for 3 min, followed by 40 cycles of 95° C. for 5 seconds and 62° C. for 30 seconds) to measure the fluorescent signal. The obtained data was analyzed using GraphPad Prism9 (GraphPad Software Inc.) to calculate the concentration (IC50 value) that reduces the mRNA expression level by 50%. The IC50 values (unit: nM) for CYP11A1, CYP17A1, CYP21A2, and STAR, of the compounds corresponding to each Example number are shown in Table 94.

CYP17A1 = assay: Changes in SF1 target gene expression for NCI-H295R: CYP17A1 mRNA (qPCR); format: cell-based; settings: Homo sapiens, NCI-H295R cells, 24 hr
Procedure: as §1

SF1-LBD = SF1-LBD (Homo sapiens, UniProt Q13285); assay: Inhibitory activity against binding of DAX1 to SF1-LBD (AlphaLISA); settings: inhibition of binding of DAX1 peptide to His-SF1-LBD, read-out: cell-free SF1 IC50
Procedure: The binding activity of each compound to the SF-1 ligand binding domain (LBD) was evaluated using the binding inhibitory activity of each compound against binding of DAX1 to SF1-LBD as an index. 100 nM His-SF1-LBD, 2 nM Biotin-DAX1 peptide (Biotin-[…]-NH2) and each compound (8-point i1 dilution series with common ratio 2 from final concentration 2 μM) were mixed in assay buffer [25 mM HEPES (pH 7.5), 100 mM NaCl, 0.1% BSA, 0.01% CHAPS, 1 mM DTT] and reacted at room temperature for 30 min. Anti-6×His AlphaLISA Acceptor beads and Streptavidin-coated AlphaScreen Donor beads were mixed to a final concentrations of 5 μg/ml and 10 μg/ml, respectively, and reacted in the dark at room temperature for 60 min. AlphaLISA signals were detected using a multimode plate reader (EnVision Xcite, PerkinElmer). The binding rate of DAX1 peptide to SF1 was calculated from the luminescence amount (C) of the compound-free group and the luminescence amount (T) of the compound-added group, based on the following formula.
The DAX1 peptide binding rate at each concentration was analyzed using GraphPad Prism6 (GraphPad Software Inc.) to calculate the concentration (IC50 value) of each compound that inhibits 50% of the binding of DAX1 to SF1-LBD.

CYP11A1 = assay: Changes in SF1 target gene expression for NCI-H295R: CYP11A1 mRNA (qPCR); format: cell-based; settings: Homo sapiens, NCI-H295R cells, 24 hr
Procedure: as §1

STAR = assay: Changes in SF1 target gene expression for NCI-H295R: STAR mRNA (qPCR); format: cell-based; settings: Homo sapiens, NCI-H295R cells, 24 hr
Procedure: as §1

NCI-H295R cells = assay: Proliferation inhibitory action on NCI-H295R (CellTiter-Glo, 7 days); format: cell-based, human; settings: Homo sapiens, NCI-H295R, 168 h
Summary of the method: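 Compounds serially diluted in DMSO; cells seeded at 2×10^3 cells/well and cultured 7 days at 37° C, 5% CO2. CellTiter-Glo 2.0 luminescence read at day 0 and day 7; proliferation rate derived from compound-addition-day signal, untreated day-7 signal and treated day-7 signal.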

SF-1 = target: T1, SF-1 (Homo sapiens, UniProt Q13285); assay: SF1 degradation induction in NCI-H295R SF-1-HiBiT cells (HiBiT DC50); format: cell-based; settings: 24 hr, concentration that induces 50% degradation of SF-1
T1 construct: NCI-H295R SF-1-HiBiT cells with HiBiT tag knocked in at the endogenous SF1 locus; host or cells: NCI-H295R SF-1-HiBiT (knock-in at endogenous locus)
Summary of the method: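 NCI-H295R cells carrying HiBiT-tagged SF-1, plated and grown 24 hr, then exposed to serially diluted compounds for 24 hr at 37° C. Remaining SF-1 read by lytic HiBiT luminescence; degradation rate from treated vs compound-free signal, DC50 as concentration giving 50% degradation.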

Chain of SF1-LBD (Q13285 222-459 limits assumed): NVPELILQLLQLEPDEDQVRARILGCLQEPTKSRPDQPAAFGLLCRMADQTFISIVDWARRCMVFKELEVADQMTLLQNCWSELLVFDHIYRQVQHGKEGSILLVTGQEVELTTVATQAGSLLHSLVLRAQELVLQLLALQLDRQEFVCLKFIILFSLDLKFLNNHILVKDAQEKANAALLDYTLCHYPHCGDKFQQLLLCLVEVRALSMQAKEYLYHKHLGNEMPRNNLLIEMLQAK

IC50 (CYP21A2) [µM] | IC50 (CYP17A1) [µM] | IC50 (SF1-LBD) [µM] | IC50 (CYP11A1) [µM] | IC50 (STAR) [µM] | GI50 (NCI-H295R cells) [µM] | DC50 (SF-1) [µM] | Compound
0.142 | 0.283 | 0.019 | 0.102 | 0.159 | – | – | CC1(C)CC(CCN(Cc2ccc(O[C@H]3CC[C@H](C(=O)O)CC3)cc2)C(=O)C(C)(C)C)(c2ccc(Cl)cc2)CCO1 (stereo partly drawn) [Example A6, Trans-4-(4-{[{2-[4-(4-chlorophenyl)-2,2-dimethyltetrahydro-2H-pyran-4-yl]ethyl)(2,2-dimethylpropanoyl)amino]methyl}phenoxy)cyclohexanecarboxylic acid]
0.028 | 0.141 | 0.029 | 0.012 | 0.047 | – | – | COc1ccc(C2(CCN(CCC(F)(F)F)Cc3ccc(O[C@H]4CC[C@H](CC(=O)O)CC4)cc3)CCOC(C)(C)C2)cc1 (stereo partly drawn) [Example K5, [Trans-4-(4-{[{2-[4-(4-methoxyphenyl)-2,2-dimethyltetrahydro-2H-pyran-4-yl]ethyl}(3,3,3-trifluoropropyl)amino]methyl}phenoxy)cyclohexyl]acetic acid]
0.033 | 0.189 | 0.019 | 0.017 | 0.065 | – | – | COc1ccc([C@]2(CCN(Cc3ccc(O[C@H]4CC[C@H](C(=O)O)CC4)cc3)C(=O)C(C)(C)C)CCOC(C)(C)C2)cc1 [Example E2, Trans-4-(4-{[(2,2-dimethylpropanoyl) {2-[(4R)-4-(4-methoxyphenyl)-2,2-dimethyltetrahydro-2H-pyran-4-yl]ethyl)amino]methyl}phenoxy)cyclohexanecarboxylic acid]
0.013 | 0.07 | < 0.016 | 0.0078 | 0.026 | – | – | COc1ccc(C2(CCN(Cc3ccc(O[C@H]4CC[C@H](CC(=O)O)CC4)c(Cl)c3)C(=O)C(C)(C)C)CCOC(C)(C)C2)cc1 (stereo partly drawn) [Example C8, [Trans-4-(2-chloro-4-{[(2,2-dimethylpropanoyl) {2-[4-(4-methoxyphenyl)-2,2-dimethyltetrahydro-2H-pyran-4-yl]ethyl}amino]methyl}phenoxy)cyclohexyl]acetic acid]
0.138 | 0.372 | – | 0.09 | 0.131 | – | – | COc1ccc([C@]2(CCN(Cc3ccc(C4=CC[C@H](CO)CC4)cc3)CC(C)(C)C(F)(F)F)CCOC(C)(C)C2)cc1 [Example W5, [(4R)-4′-{[{2-[(4R)-4-(4-Methoxyphenyl)-2,2-dimethyltetrahydro-2H-pyran-4-yl]ethyl)(3,3,3-trifluoro-2,2-dimethylpropyl)amino]methyl}-2,3,4,5-tetrahydro[biphenyl]-4-yl]methanol]
0.581 | 1.23 | – | 0.511 | 0.776 | – | – | COc1ccc([C@]2(CCN(Cc3ccc(C4=CC[C@H](CN5CCN(C(=O)OC(C)(C)C)CC5)CC4)cc3)CC(C)(C)C(F)(F)F)CCOC(C)(C)C2)cc1 [Example X2, tert-Butyl 4-{[(4R)-4′-{[{2-[(4R)-4-(4-methoxyphenyl)-2,2-dimethyltetrahydro-2H-pyran-4-yl]ethyl)(3,3,3-trifluoro-2,2-dimethylpropyl)amino]methyl}-2,3,4,5-tetrahydro[biphenyl]-4-yl]methyl}piperazine-1-carboxylate]
0.021 | 0.071 | – | 0.0098 | 0.018 | – | – | COc1ccc([C@]2(CCN(Cc3ccc(C4=CC[C@H](C(=O)O)CC4)c(F)c3)CC(C)(C)C(F)(F)F)CCOC(C)(C)C2)cc1 [Example V5, (4R)-2′-Fluoro-4′-{[{2-[(4R)-4-(4-methoxyphenyl)-2,2-dimethyltetrahydro-2H-pyran-4-yl]ethyl)(3,3,3-trifluoro-2,2-dimethylpropyl)amino]methyl}-2,3,4,5-tetrahydro[biphenyl]-4-carboxylic acid monohydrochloride]
– | – | – | – | – | 0.123 | 0.014 | COc1ccc([C@]2(CCN(Cc3ccc(C4=CC[C@H](CN5CCN(C(=O)c6ccc7c8c6O[C@@H]6COC[C@@H]6n8c(=O)n7C6CCC(=O)NC6=O)CC5)CC4)cc3)CC(C)(C)C(F)(F)F)CCOC(C)(C)C2)cc1 (relative stereo) [BV10, 3-[(6aS*,9aS*)-5-[(4-{[(4R)-4′-{[{2-[(4R)-4-(4-Methoxyphenyl)-2,2-dimethyltetrahydro-2H-pyran-4-yl]ethyl}(3,3,3-trifluoro-2,2-dimethylpropyl)amino]methyl}-2,3,4,5-tetrahydro[biphenyl]-4-yl]methyl}piperazin-1-yl)carbonyl]-1-oxo-6a, 7,9,9a-tetrahydrofuro[3,4-b]imidazo[1,5,4-de][1,4]benzoxazin-2(1H)-yl]piperidine-2,6-dione]
– | – | – | – | – | 0.286 | 0.056 | COc1ccc([C@]2(CCN(Cc3ccc(OC4CC5(CCN(CC(=O)Nc6ccc7c(c6)C(=O)N(C6CCC(=O)NC6=O)C7=O)CC5)C4)cc3)CC(C)(C)C(F)(F)F)CCOC(C)(C)C2)cc1 (stereo partly drawn) [AQ1, N-[2-(2,6-Dioxopiperidin-3-yl)-1,3-dioxo-2,3-dihydro-1H-isoindol-5-yl]-2-[2-(4-{[{2-[(4R)-4-(4-methoxyphenyl)-2,2-dimethyltetrahydro-2H-pyran-4-yl]ethyl}(3,3,3-trifluoro-2,2-dimethylpropyl)amino]methyl}phenoxy)-7-azaspiro[3.5]nonan-7-yl]acetamide]
– | – | – | – | – | 0.082 | 0.0065 | COc1ccc([C@]2(CCN(Cc3ccc(C4=CCC(CN5CCN(C(=O)c6ccc7c(c6)n(C)c(=O)n7C6CCC(=O)NC6=O)CC5)CC4)cc3)CC3(C(F)(F)F)CCC3)CCOC(C)(C)C2)cc1 (stereo partly drawn) [AR7, 3-(5-{[4-({4′-[({2-[(4R)-4-(4-Methoxyphenyl)-2,2-dimethyltetrahydro-2H-pyran-4-yl]ethyl}{[1-(trifluoromethyl)cyclobutyl]methyl}amino)methyl]-2,3,4,5-tetrahydro[biphenyl]-4-yl}methyl)piperazin-1-yl]carbonyl}-3-methyl-2-oxo-2,3-dihydro-1H-benzimidazol-1-yl)piperidine-2,6-dione]
– | – | – | – | – | 0.061 | 0.0074 | COc1ccc([C@]2(CCN(Cc3ccc(C4=CCC(C(=O)N5CCN(Cc6ccc7c(c6)n(C)c(=O)n7C6CCC(=O)NC6=O)CC5)CC4)c(F)c3F)CC(C)(C)C(F)(F)F)CCOC(C)(C)C2)cc1 (stereo partly drawn) [AV2, 3-[5-({4-[(2′,3′-Difluoro-4′-{[{2-[(4R)-4-(4-methoxyphenyl)-2,2-dimethyltetrahydro-2H-pyran-4-yl]ethyl}(3,3,3-trifluoro-2,2-dimethylpropyl)amino]methyl}-2,3,4,5-tetrahydro[biphenyl]-4-yl)carbonyl]piperazin-1-yl}methyl)-3-methyl-2-oxo-2,3-dihydro-1H-benzimidazol-1-yl]piperidine-2,6-dione]
